Data set [1] has as its target CYP2D6 (Homo sapiens, UniProt P10635). Description: CYP2D6 inhibition assay (bufuralol, pooled human liver microsomes). The settings on record: for pIC50: 2D6 IC50, CYP enzyme inhibition; for IC50: 2D6 IC50 (uM), CYP enzyme inhibition.
Data set [2] in a line: Microsomal stability assay, rat liver microsomes.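 Note: rat liver microsomes (0.25 mg/mL) with about 1 µM compound plus 1 mM NADPH, pH 7.4, 37 °C for 30 min, parent left measured by LC-MS/MS against 0 min.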 The settings on record: rat liver microsomal data. (Microsomes from liver hold many membrane-bound enzymes, among them those of drug oxidation.)
Data set [3] addresses CYP3A4 (CYP3A) (Homo sapiens, UniProt P08684). The data set can be described thus: in vitro. The settings on record: microsomes, pH 7.4.
Data set [4] in a line: Microsomal stability assay, human liver microsomes.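 Note: pooled human liver microsomes at 0.25 mg/mL with 1 µM compound and NADPH at 37 °C, pH 7.4, for 30 min, unchanged parent quantified by LC-MS/MS against the 0 min sample.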 The conditions noted are these: human liver microsomal data.
For data set [5], the system named is Aβ40 in conditioned medium of cells stably expressing Amyloid Precursor Protein (APP). Description: In vitro BACE cell-based assay (Aβ40 in conditioned medium, sandwich ELISA).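 Note: compounds added as a dilution series, secreted peptide quantified by europium time-resolved fluorescence readout, potency fitted from percent of control versus compound concentration.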 The settings on record: read-out: HEK cell assay. (In general: In an ELISA, binding on a coated surface is turned into a signal by an enzyme label.)
Data set [6] addresses Beta Secretase enzyme (BACE) (Homo sapiens, UniProt P56817). The data set can be described thus: In vitro enzymatic BACE FRET (fluorescence resonance energy transfer) assay.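 Note: fluorescence read after 1 h with 50 nM quenched peptide substrate spanning the BACE cleavage site, in pH 4.2 acetate buffer containing 10% DMSO and nonionic detergent.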 Type of data set: biochemical. The settings on record: read-out: BACE1 FRET assay.
Setting [7] is: Homo sapiens, HEK293, Table 2, HEK cells.
[8] abbreviates: Homo sapiens, HEK293, HEK cells.

By IC50 is commonly meant the point on the concentration scale where inhibition reaches its midpoint. Lower therefore signals greater potency.

pIC50: −log10 of the molar value. Read-outs that look alike come from different tables or passages of the source.

Chain of CYP2D6 (P10635 whole entry): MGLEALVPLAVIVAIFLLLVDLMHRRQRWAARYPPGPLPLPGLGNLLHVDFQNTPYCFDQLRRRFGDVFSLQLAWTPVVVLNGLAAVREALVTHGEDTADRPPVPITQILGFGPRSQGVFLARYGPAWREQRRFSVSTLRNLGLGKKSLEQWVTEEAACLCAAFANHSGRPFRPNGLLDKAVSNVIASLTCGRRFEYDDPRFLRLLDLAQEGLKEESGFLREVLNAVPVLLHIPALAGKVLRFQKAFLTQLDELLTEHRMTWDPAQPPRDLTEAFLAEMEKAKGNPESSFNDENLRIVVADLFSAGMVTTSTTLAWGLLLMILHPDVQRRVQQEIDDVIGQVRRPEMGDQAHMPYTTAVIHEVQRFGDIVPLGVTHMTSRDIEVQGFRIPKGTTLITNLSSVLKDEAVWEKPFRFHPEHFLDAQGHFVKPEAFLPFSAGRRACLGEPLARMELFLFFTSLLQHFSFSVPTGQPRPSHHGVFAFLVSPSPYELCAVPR
Chain of Beta Secretase enzyme (BACE) (P56817 46-501): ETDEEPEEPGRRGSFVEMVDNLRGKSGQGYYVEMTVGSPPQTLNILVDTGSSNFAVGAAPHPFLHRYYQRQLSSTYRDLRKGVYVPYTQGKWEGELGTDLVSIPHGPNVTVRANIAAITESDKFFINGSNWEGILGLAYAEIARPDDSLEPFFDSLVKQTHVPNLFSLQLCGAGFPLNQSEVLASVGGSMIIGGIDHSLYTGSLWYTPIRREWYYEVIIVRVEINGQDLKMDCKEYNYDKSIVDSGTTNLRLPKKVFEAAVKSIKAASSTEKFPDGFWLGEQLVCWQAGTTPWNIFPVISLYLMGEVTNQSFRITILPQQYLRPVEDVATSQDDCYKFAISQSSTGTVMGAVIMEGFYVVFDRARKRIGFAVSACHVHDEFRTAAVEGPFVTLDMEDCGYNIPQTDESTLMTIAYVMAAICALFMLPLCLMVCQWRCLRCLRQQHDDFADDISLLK
Chain of CYP3A4 (CYP3A) (P08684 2-503): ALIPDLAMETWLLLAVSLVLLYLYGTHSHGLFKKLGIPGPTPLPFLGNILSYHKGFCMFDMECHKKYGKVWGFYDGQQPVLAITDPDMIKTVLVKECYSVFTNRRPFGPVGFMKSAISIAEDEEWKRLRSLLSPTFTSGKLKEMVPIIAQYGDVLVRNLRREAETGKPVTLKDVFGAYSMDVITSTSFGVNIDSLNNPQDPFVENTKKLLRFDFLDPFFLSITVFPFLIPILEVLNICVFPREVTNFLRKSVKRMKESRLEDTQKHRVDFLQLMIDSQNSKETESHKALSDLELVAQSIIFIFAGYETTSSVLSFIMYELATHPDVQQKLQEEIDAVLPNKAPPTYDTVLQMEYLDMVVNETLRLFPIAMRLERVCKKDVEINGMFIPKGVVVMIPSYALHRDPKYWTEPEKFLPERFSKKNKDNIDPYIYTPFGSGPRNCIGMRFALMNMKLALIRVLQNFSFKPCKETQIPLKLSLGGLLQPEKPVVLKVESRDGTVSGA

In the case of `COCC(=O)N[C@@H](Cc1cc(F)cc(F)c1)[C@H](O)CN[C@H]1CC2(CCC2)Oc2c1cc(CC(C)(C)C)cc2-n1ccnc1` [compound 475], the pIC50 was 5.76 in data set [1], 7.30 in data set [3], 8.10 in data set [5] (setting [7]) and 7.74 in data set [6] (Table 2). In addition, the RLM in data set [2] is 128.5 µL/min/mg. In addition, the HLM in data set [4] worked out at 26 µL/min/mg.
As for `CO[C@H](C)C(=O)N[C@@H](Cc1cc(F)cc(F)c1)[C@H](O)CN[C@H]1CC2(CCC2)Oc2c(-c3cnc[nH]3)cc(CC(C)C)cc21` [compound 476], the pIC50 was 4.91 in data set [1], 6.22 in data set [3], 8.30 in data set [5] (setting [7]) and 7.55 in data set [6] (Table 2). The RLM in data set [2] turned out to be 408 µL/min/mg. This compound returned an HLM in data set [4] of 329 µL/min/mg.
Consider `CC(C)(C)Cc1cnc2c(c1)[C@@H](NC[C@@H](O)[C@H](Cc1ccc(F)cc1)NC(=O)C(C)(F)F)CC1(CCC1)O2` [compound 477], for which the pIC50 is 5.49 in data set [1], 6.52 in data set [3], 6.98 in data set [5] (setting [7]) and 7.92 in data set [6] (Table 2). In data set [2], this compound yielded an RLM of 337 µL/min/mg. The compound further had an HLM in data set [4] of 118 µL/min/mg.
With `CNc1cc(CC(C)(C)C)cc2c1OC1(CCC1)C[C@@H]2NC[C@@H](O)[C@H](Cc1cc(F)cc(F)c1)NC(=O)COC` [compound 479], the pIC50 is 5.19 in data set [1], 5.74 in data set [3], 7.77 in data set [5] (setting [7]) and 7.96 in data set [6] (Table 2). For the same compound, in data set [2], the RLM was 329 µL/min/mg. The compound further came in with an HLM in data set [4] of 167 µL/min/mg.
As for `COCC(=O)N[C@@H](Cc1cc(F)cc(F)c1)[C@H](O)CN[C@H]1CC2(CCC2)Oc2c(-c3cnc[nH]3)cc(CC(C)C)cc21` [compound 480], the pIC50 in data set [1] was 5.00; in data set [3], 6.30; in data set [5] (setting [7]), 8.22; in data set [6] (Table 2) it was 7.64. For the same compound, the RLM in data set [2] was 405 µL/min/mg. For the same compound, the HLM in data set [4] came out at 272 µL/min/mg.
For the compound `CC(=O)N[C@@H](Cc1cc(F)cc(F)c1)[C@H](O)CN[C@H]1CC2(CCC2)Oc2c1cc(CC(C)(C)C)nc2-c1cncs1` [compound 481], the pIC50 in data set [1] is 5.10; in data set [3], 6.70; in data set [5] (setting [7]) it was 6.91; in data set [6] (Table 2), 8.40. In addition, the RLM in data set [2] turned out to be 177 µL/min/mg. This compound also displayed an HLM in data set [4] of 155 µL/min/mg.
For `CO[C@H](C)C(=O)N[C@@H](Cc1ccc(F)cc1)[C@H](O)CN[C@H]1CC2(CCC2)Oc2c1cc(CC(C)C)cc2-n1ccnc1` [compound 482], the pIC50 in data set [1] is 5.44; in data set [3] it was 7.00; in data set [5] (setting [7]), 6.37; in data set [6] (Table 2) it was 6.82. The same compound registered an RLM in data set [2] of 194 µL/min/mg. The HLM in data set [4] was 27 µL/min/mg.
As to `COCC(=O)N[C@@H](Cc1ccc2c(c1)OCO2)[C@H](O)CN[C@H]1CC2(CCC2)Oc2nc(F)c(CC(C)(C)C)cc21` [compound 485], the pIC50 was 5.77 in data set [1], 7.00 in data set [3], 6.42 in data set [5] (setting [7]) and 6.92 in data set [6] (Table 2). The compound also showed an RLM in data set [2] of 106 µL/min/mg. The same compound gave an HLM in data set [4] of 43 µL/min/mg.
`COCC(=O)N[C@@H](Cc1cc(F)cc(F)c1)[C@H](O)CN[C@H]1CC2(CCC2)Oc2c(-c3cncs3)cc(CC(C)(C)C)cc21` [compound 486]: the pIC50 in data set [1] is 4.89; in data set [3], 6.70; in data set [5] (setting [7]), 7.48; in data set [6] (Table 2) it was 8.40. In data set [2], this compound registered an RLM of 380 µL/min/mg. Further, the HLM in data set [4] is 408 µL/min/mg.
In data set [1], `COCC(=O)N[C@@H](Cc1cc(F)cc(F)c1)[C@H](O)CN[C@H]1CC2(CCC2)Oc2c(-c3ccccc3F)cc(CC(C)(C)C)cc21` [compound 487] registered an IC50 of 21.4 µM. For the same compound, the “RLM” value in data set [2] amounted to 387 µL/min/mg. The pIC50 in data set [3] was 5.80; in data set [5] (setting [8]) it was 6.93; in data set [6] (BACE enzyme assay) it was 7.82. Besides, the “HLM” value in data set [4] came out at 394 µL/min/mg.
In data set [1], `COCC(=O)N[C@@H](Cc1cc(F)cc(F)c1)[C@H](O)CN[C@H]1CC2(CCC2)Oc2c(-c3cccnc3)cc(CC(C)(C)C)cc21` [compound 489] showed an IC50 of 3.9 µM. In addition, the “RLM” value in data set [2] stood at 775 µL/min/mg. The figures for the pIC50 in data set [3], in data set [5] (setting [8]) and in data set [6] (BACE enzyme assay) were 6.40, 7.70 and 8.15, respectively. For the same compound, in data set [4], the “HLM” value came out at 399 µL/min/mg.
With `COCC(=O)N[C@@H](Cc1cc(F)cc(F)c1)[C@H](O)CN[C@H]1CC2(CCC2)Oc2c(-c3cncs3)cc(CC(C)C)cc21` [compound 490], the midpoint of inhibition in data set [1], the IC50, lay at 7.5 µM. Moreover, in data set [2], the “RLM” value worked out at 249 µL/min/mg. For the same compound, the pIC50 in data set [3] was 6.70; in data set [5] (setting [8]) it was 7.54; in data set [6] (BACE enzyme assay), 8.52. The “HLM” value in data set [4] was found to be 344 µL/min/mg.
In data set [1], `CO[C@H](C)C(=O)N[C@@H](Cc1cc(F)cc(F)c1)[C@H](O)CN[C@H]1CC2(CCC2)Oc2c(-c3cncs3)cc(CC(C)C)cc21` [compound 491] gave an IC50 of 6.2 µM. Besides, the “RLM” value in data set [2] is 285 µL/min/mg. The values for the pIC50 in data set [3], in data set [5] (setting [8]) and in data set [6] (BACE enzyme assay) were 6.70, 7.44 and 8.40, respectively. Besides, in data set [4], the “HLM” value was 345 µL/min/mg.
`COCC(=O)N[C@@H](Cc1ccc(F)cc1)[C@H](O)CN[C@@H]1CC2(CCC2)Oc2c1cc(CC(C)(C)C)nc2C#N` [compound 492]: in data set [1], it took 8.2 µM to reach half-maximal inhibition (IC50). In data set [2], the “RLM” value was 190 µL/min/mg. For the same compound, the pIC50 was 6.40 in data set [3], 6.34 in data set [5] (setting [8]) and 5.30 in data set [6] (BACE enzyme assay). Further, the “HLM” value in data set [4] was determined as 94 µL/min/mg.
In data set [1], `COCC(=O)N[C@@H](Cc1ccc(F)cc1)[C@H](O)CN[C@H]1CC2(CCC2)Oc2c1cc(CC(C)(C)C)nc2C#N` [compound 493] had an IC50 of 11.6 µM. Besides, in data set [2], the “RLM” value was found to be 221 µL/min/mg. In addition, the figures for the pIC50 in data set [3], in data set [5] (setting [8]) and in data set [6] (BACE enzyme assay) were 6.22, 6.33 and 7.36, respectively. In data set [4], the “HLM” value came out at 95 µL/min/mg.
On to `COCC(=O)N[C@@H](Cc1cc(F)cc(F)c1)[C@H](O)CN[C@H]1CC2(CCC2)Oc2c1cc(CC(C)(C)C)nc2-n1ccnc1` [compound 494], for which the IC50 in data set [1] was found to be 1.2 µM. Further, the “RLM” value in data set [2] stood at 63 µL/min/mg. The pIC50 in data set [3] is 6.70; in data set [5] (setting [8]), 7.14; in data set [6] (BACE enzyme assay), 7.70. Moreover, in data set [4], the “HLM” value amounted to 30 µL/min/mg.
`CO[C@H](C)C(=O)N[C@@H](Cc1cc(F)cc(F)c1)[C@H](O)CN[C@H]1CC2(CCC2)Oc2c1cc(CC(C)(C)C)nc2-n1ccnc1` [compound 495]: the IC50 in data set [1] is 2 µM. In addition, in data set [2], the “RLM” value was 62 µL/min/mg. Besides, the values for the pIC50 in data set [3], in data set [5] (setting [8]) and in data set [6] (BACE enzyme assay) were 7.00, 7.10 and 7.70, respectively. In data set [4], the “HLM” value was 41 µL/min/mg.
`COCC(=O)N[C@@H](Cc1ccc(F)cc1)[C@H](O)CN[C@H]1CC2(CCC2)Oc2ncc(CC(C)(C)C#N)cc21` [compound 496] came in with an IC50 in data set [1] of at least 27 µM. In addition, the “RLM” value in data set [2] is 139 µL/min/mg. For the same compound, the results for the pIC50 in data set [3], in data set [5] (setting [8]) and in data set [6] (BACE enzyme assay) were 5.33, 6.99 and 7.62, respectively. The “HLM” value in data set [4] worked out at 89 µL/min/mg.
`CC(=O)N[C@@H](Cc1ccc(F)cc1)[C@H](O)CN[C@H]1CC2(CCC2)Oc2c1cc(CC(C)(C)C)nc2NC1CCC1` [compound 497]: the IC50 in data set [1] worked out at 2.6 µM. The “RLM” value in data set [2] is 172 µL/min/mg. Besides, the pIC50 in data set [3] was 5.48; in data set [5] (setting [8]), 7.00; in data set [6] (BACE enzyme assay), 7.11. For the same compound, the “HLM” value in data set [4] came out at 157 µL/min/mg.
For `COCC(=O)N[C@@H](Cc1ccc2c(c1)OCO2)[C@H](O)CN[C@H]1CC2(CCC2)Oc2ccc(C[C@@H](C)F)cc21` [compound 498], the IC50 in data set [1] is 0.7 µM. For the same compound, the “RLM” value in data set [2] is 206 µL/min/mg. Further, the pIC50 in data set [3] is 6.30; in data set [5] (HEK cells) it was 6.42; in data set [6] (BACE enzyme assay) it was 6.57. Besides, in data set [4], the “HLM” value came out at 119 µL/min/mg.
`CO[C@@H](C)C(=O)N[C@@H](Cc1ccc2c(c1)OCO2)[C@H](O)CN[C@H]1CC2(CCC2)Oc2ccc(C[C@@H](C)F)cc21` [compound 499] came in with a half-maximal inhibitory concentration (IC50) in data set [1] of 0.7 µM. In addition, the “RLM” value in data set [2] was found to be 213 µL/min/mg. Further, the pIC50 in data set [3] is 6.52; in data set [5] (setting [8]), 6.33; in data set [6] (BACE enzyme assay), 5.87. Also, the “HLM” value in data set [4] came out at 156 µL/min/mg.
As for `CO[C@H](C)C(=O)N[C@@H](Cc1cccc(F)c1)[C@H](O)CN[C@@H]1CC2(CCC2)Oc2c1cc(CC(C)(C)C)nc2-n1ccnc1` [compound 501], half-maximal inhibition in data set [1] (IC50) was put at 2.8 µM. Also, in data set [2], the “RLM” value is 175 µL/min/mg. The pIC50 in data set [3] is 7.00; in data set [5] (setting [8]), under 5.00; in data set [6] (BACE enzyme assay), 5.28. Besides, the “HLM” value in data set [4] is 86 µL/min/mg.
`COCC(=O)N[C@@H](Cc1cccc(F)c1)[C@H](O)CN[C@@H]1CC2(CCC2)Oc2c1cc(CC(C)(C)C)nc2-n1ccnc1` [compound 502]: half-maximal inhibition in data set [1] (IC50) was put at 0.8 µM. Besides, the “RLM” value in data set [2] stood at 158 µL/min/mg. Moreover, the pIC50 in data set [3] is 7.00; in data set [5] (setting [8]), 5.73; in data set [6] (BACE enzyme assay), 5.70. The “HLM” value in data set [4] came to 54 µL/min/mg.
